Laboratory results: patent US7018996B2, “Antibiotics AW998A, AW998B, AW998C and AW998D” (Wyeth Holdings Corporation, priority 2002, dated 2006)
≈ marks a conversion by molar mass, not a printed value. Like-named read-outs stand apart in the source and are kept apart here. Bridge positions count the residues as written; N and C are the ends. Square brackets hold non-standard residues; d marks the D form. Peptide text beside a SMILES is read from it. * marks the point of attachment. Tetradecenoyl(2E,13-Me) = CC(C)CCCCCCCCC/C=C/C(=O)*; X1 = CC(C)CCCCCCCC/C=C/C(=O)*; Pip = O=C(O)[CH]1CCCCN1; Dap = NC[CH](N)C(=O)O

Key:
Assay type in all cases: cell-based
[1] = system: S. aureus GC 1131 (MRSA); experiment: MIC, broth dilution, S. aureus GC 1131 (MRSA); settings: Staphylococcus aureus, 18 hours at 35° C., read-out: Antimicrobial Activity (MIC)
Method: (§1) The minimum inhibitory concentration (MIC), the lowest concentration of the antibiotic which inhibits growth of the test organism, is determined by the broth dilution method using Muller-Hinton II […] (Baltimore Biological Laboratories) following the recommendations of the National Committee for Clinical Laboratory Standards [Methods for dilution antimicrobial susceptibility tests for bacteria that grow aerobically, approved standard M7-A2, National Committee for Clinical Laboratory Standards, Villanova, Pa.].
(§2) An inoculum level of 5×10^5 CFU/mL, and a range of antibiotic concentrations (64–0.06 μg/mL) is used. The MIC is determined after the microtiter plates are incubated for 18 hours at 35° C. in an ambient air incubator. The test organisms include a spectrum of Gram-positive bacteria comprised of Staphylococcus sp., Streptococcus sp. and Enterococcus sp.
(§3) The in vitro antibacterial activity of AW998A, AW998B, AW998C and AW998D is determined against a spectrum of Gram-positive and Gram-negative bacteria by a standard broth dilution method. Serial dilution of the compounds are made in Mueller-Hinton broth and inoculated with a bacterial suspension. The lowest concentration of compound that inhibited the growth of a bacterial strain after 18 hours of incubation at 35° C. is reported as the minimal inhibitory concentration (MIC) for that strain.

[2] = system: S. aureus GC 4543 (Smith); experiment: MIC, broth dilution, S. aureus GC 4543 (Smith); settings: Staphylococcus aureus, 18 hours at 35° C., read-out: Antimicrobial Activity (MIC)
Method: as §1, §2, §3

[3] = system: S. aureus GC 2216 (ATCC); experiment: MIC, broth dilution, S. aureus GC 2216 (ATCC); settings: Staphylococcus aureus, 18 hours at 35° C., read-out: Antimicrobial Activity (MIC)
Method: as §1, §2, §3

[4] = system: E. faecalis GC 4555 (ATCC); experiment: MIC, broth dilution, E. faecalis GC 4555 (ATCC); settings: Enterococcus faecalis, 18 hours at 35° C., read-out: Antimicrobial Activity (MIC)
Method: as §1, §2, §3

[5] = system: E. faecalis GC 2242 (VRE); experiment: MIC, broth dilution, E. faecalis GC 2242 (VRE); settings: Enterococcus faecalis, 18 hours at 35° C., read-out: Antimicrobial Activity (MIC)
Method: as §1, §2, §3

[6] = system: S. pneumoniae GC 1894; experiment: MIC, broth dilution, S. pneumoniae GC 1894; settings: Streptococcus pneumoniae, GC1894, 18 h, 18 hours at 35° C., read-out: Antimicrobial Activity (MIC)
Method: as §1, §2, §3

[7] = system: C. albicans GC 3066 (Yeast); experiment: MIC, broth dilution, C. albicans GC 3066 (Yeast); settings: Candida albicans, read-out: Antimicrobial Activity (MIC)
[8] = system: E. coli GC 4559 (wt); experiment: MIC, broth dilution, E. coli GC 4559 (wt); settings: Escherichia coli, read-out: Antimicrobial Activity (MIC)
Method: as §1, §2
(§4) The test organisms also include a spectrum of Gram-negative bacteria comprised of E. coli GC, M. catarrhalis and H. influenzae.
as §3

[9] = system: E.coil GC 4560 (imp); experiment: MIC, broth dilution, E.coil GC 4560 (imp); settings: Escherichia coli, 18 h, read-out: Antimicrobial Activity (MIC)
Method: as §1, §2, §4, §3

[10] = system: B. subtilis GC 6344 (168); experiment: MIC, broth dilution, B. subtilis GC 6344 (168); settings: Bacillus subtilis, 18 hours at 35° C., read-out: Antimicrobial Activity (MIC)
Method: as §1, §2, §3

[11] = system: M. catarrhalis GC 6907* (clinical); experiment: MIC, broth dilution, M. catarrhalis GC 6907 (clinical); settings: Moraxella catarrhalis, read-out: Antimicrobial Activity (MIC)
Method: as §1, §2, §4, §3

[12] = system: H. influenzae GC 6896 <> (ATTC); experiment: MIC, broth dilution, H. influenzae GC 6896 (ATTC); settings: Haemophilus influenzae, read-out: Antimicrobial Activity (MIC)
Method: as §1, §2, §4, §3

[13] = S. pneumoniae GC 1894* (5% LHB)

| Structure (SMILES) | MIC [1] | MIC [2] | MIC [3] | MIC [4] | MIC [5] | MIC [6, 13] | MIC ([6]; S. pneumoniae GC 1894+ (THY)) | MIC ([7]; 18 h) | MIC ([8]; 18 h) | MIC [9] | MIC [10] | MIC ([11]; 18 h) | MIC ([12]; 18 h) | MIC ([7]; C. albicans GC 3066 (Yeast), 18 hours at 35° C.) | MIC ([8]; E. coli GC 4559 (wt), 18 hours at 35° C.) | MIC ([11]; M. catarrhalis GC 6907* (clinical), 18 hours at 35° C.) | MIC ([12]; H. influenzae GC 6896 <> (ATTC), 18 hours at 35° C.) |
| --- | --- | --- | --- | --- | --- | --- | --- | --- | --- | --- | --- | --- | --- | --- | --- | --- | --- |
| CCC(C)C1NC(=O)C(C(C)O)NC(=O)CNC(=O)C(CC(=O)O)NC(=O)CNC(=O)C(CC(=O)O)NC(=O)CNC(=O)C2CCCCN2C(=O)C(NC(=O)C(CC(=O)O)NC(=O)/C=C/CCCCCCCCC(C)C)CNC(=O)C2CCCN2C1=O (stereo not drawn) [AW998C] (X1-D[Dap][Pip]GDGDGTIP; lactam 2-C; configuration not given here) | 128 µg/mL (≈ 104 µM) | 64 µg/mL (≈ 51.9 µM) | 64 µg/mL (≈ 51.9 µM) | 128 µg/mL (≈ 104 µM) | 128 µg/mL (≈ 104 µM) | 8 µg/mL (≈ 6.49 µM) | 64 µg/mL (≈ 51.9 µM) | > 128 µg/mL | > 128 µg/mL | > 128 µg/mL | 128 µg/mL (≈ 104 µM) | > 128 µg/mL | > 128 µg/mL | – | – | – | – |
| CCC(C)C1NC(=O)C(C(C)O)NC(=O)CNC(=O)C(CC(=O)O)NC(=O)CNC(=O)C(CC(=O)O)NC(=O)CNC(=O)C2CCCCN2C(=O)C(NC(=O)C(CC(=O)O)NC(=O)/C=C/CCCCCCCCCC(C)C)CNC(=O)C2CCCN2C1=O (stereo not drawn) [AW998A] ({Tetradecenoyl(2E,13-Me)}-D[Dap][Pip]GDGDGTIP; lactam 2-C; configuration not given here) | 16 µg/mL (≈ 12.8 µM) | 8 µg/mL (≈ 6.41 µM) | 8 µg/mL (≈ 6.41 µM) | 32 µg/mL (≈ 25.7 µM) | 64 µg/mL (≈ 51.3 µM) | 4 µg/mL (≈ 3.21 µM) | 2 µg/mL (≈ 1.6 µM) | – | – | 32 µg/mL (≈ 25.7 µM) | 32 µg/mL (≈ 25.7 µM) | – | – | 128 µg/mL (≈ 103 µM) | > 128 µg/mL | > 128 µg/mL | > 128 µg/mL |
| CC(C)CCCCCCCCC/C=C/C(=O)NC(CC(=O)O)C(=O)NC1CNC(=O)C2CCCN2C(=O)C(C(C)C)NC(=O)C(C(C)O)NC(=O)CNC(=O)C(CC(=O)O)NC(=O)CNC(=O)C(CC(=O)O)NC(=O)CNC(=O)C2CCCCN2C1=O (stereo not drawn) [AW998D] ({Tetradecenoyl(2E,13-Me)}-D[Dap][Pip]GDGDGTVP; lactam 2-C; configuration not given here) | 128 µg/mL (≈ 104 µM) | 128 µg/mL (≈ 104 µM) | 128 µg/mL (≈ 104 µM) | 128 µg/mL (≈ 104 µM) | 128 µg/mL (≈ 104 µM) | 16 µg/mL (≈ 13 µM) | 128 µg/mL (≈ 104 µM) | > 128 µg/mL | > 128 µg/mL | > 128 µg/mL | 128 µg/mL (≈ 104 µM) | > 128 µg/mL | > 128 µg/mL | – | – | – | – |
